The values below are quoted from earlier work in patent US20100069398A1, “Combination therapy” (priority 2004, published 2010).

The series deals with tumour models. The conditions noted are these: once-daily oral administration, range of models.

Take `COc1cc2c(Nc3ccc(Br)cc3F)ncnc2cc1OCC1CCN(C)CC1` [ZD6474, 4-(4-bromo-2-fluoroanilino)-6-methoxy-7-(1-methylpiperidin-4-ylmethoxy)quinazoline]: the anti-tumour activity entry is given as “broad-spectrum anti-tumour activity”.
